{"source": "patent US12104178B2", "about": "“DHFR tunable protein regulation” (Obsidian Therapeutics, Inc., priority 2017, dated 2024)", "key": {"HEK-293T cells": {"system": "HEK-293T cells", "assay": "IL15 western blot of DD IL15-IL15Ra, transient transfection", "format": "cell-based, human", "conditions": "10 μM Trimethoprim or 1 μM Shield-1, 24 h", "experimental": "To test ligand dependent IL15-IL15Ra production, 1 million HEK-293T cells were plated in a 6-well plate in growth media containing DMEM and 10 FBS and incubated overnight at 37° C., 5% CO2. […] Cells were harvested and IL15 levels are analyzed via western blotting using human IL15 antibody (Abcam, Cambridge, UK)."}, "CD4 positive T cells": {"system": "CD4 positive T cells", "assay": "Kinetics of IL15Ra surface expression in T cells with TMP (Table 92);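 note: CD4 positive T cells, CD3/CD28 bead-activated and lentivirally transduced with DD-IL15-IL15Ra, read for surface IL15Ra positivity, stabilization ratio is fold change of ligand over DMSO, untransduced cells as negative control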", "format": "cell-based, human", "conditions": "for Stabilization ratio: TMP vs DMSO"}, "HCT116 cells [1]": {"system": "HCT116 cells", "assay": "IL15-IL15Ra in vivo tumor study (xenograft)", "conditions": "5 million HCT116 cells s.c., nude mice", "experimental": "The functional capability of IL15-IL15Ra constructs was tested in vivo in xenograft assays. The experiment was designed to test the hypothesis that pulsatile expression of IL15-IL15Ra fusion proteins from cancer cell lines such as HCT116, in mice may stimulate the mouse's NK cells to attack the tumor leading to tumor growth inhibition. […] Tumors were allowed to develop over a period of 22 days.\nMice injected with OT-IL15-009 expressing cells were left untreated, or treated with vehicle control or TMP."}, "HEK293T cells": {"system": "HEK293T cells", "assay": "Surface IL15 and IL15Ra FACS, transient transfection", "format": "cell-based, human", "conditions": "Shield-1 or Trimethoprim", "experimental": "48 hours after transfection, cells were analyzed using FACS."}, "HCT-116 cells [2]": {"system": "HCT-116 cells", "assay": "TMP dose response of IL15-IL15Ra surface expression (FACS)", "format": "cell-based, human", "conditions": "24 h", "source_text": "Surface expression of IL15-IL15Ra fusion constructs was quantified by FACS using IL15Ra-PE antibody.\nSurface expression of IL15-IL15Ra fusion construct was quantified by FACS using IL15Ra-PE antibody."}, "HCT-116 cells [3]": {"system": "HCT-116 cells", "assay": "Time course of IL15-IL15Ra surface expression with TMP", "format": "cell-based, human", "conditions": "10 μM TMP", "experimental": "The time course of ligand dependent stabilization of IL15-IL15Ra fusion constructs was measured in HCT-116 cells."}, "primary T cells": {"system": "primary T cells", "assay": "Regulated expression of IL15-IL15Ra in T cells (FACS)", "format": "cell-based, human", "experimental": "The transduction was carried out at two different lentivirus concentrations, 5 μl and 20 μl for the DD regulated construct using Lentiboost™ (Sirion Biotech, Germany). […] Samples were analyzed with an anti IL15Ra antibody using FACS. Additional controls samples such as cells treated with Lentiboost only, untransduced cells treated with DMSO or TMP, and Isotype controls were included in the FACS analysis. […] In both figures, DMSO-A and TMP-A represent cells treated with 5 μl of lentivirus and DMSO-B and TMP-B represent cells treated with 20 μl of lentivirus. […] Additionally, very low levels of IL15Ra were detected in the DMSO treated samples under the same conditions as well as in the untransduced T cells.\nIL15Ra expression was measured using FACS."}, "HCT116 cells [4]": {"system": "HCT116 cells", "assay": "IL15Ra immunoblot, TMP dose response", "format": "cell-based, human", "conditions": "TMP 10, 33, 100 μM, 24 h", "source_text": "Cell lysates were obtained and immunoblotted with anti IL15Ra antibody.\nCell lysates were immunoblotted with anti IL15Ra antibody."}, "HCT116 tumors": {"system": "HCT116 tumors", "assay": "HCT116 OT-IL15-009 tumors in mice, IL15-IL15Ra western blot and TMP levels", "format": "in vivo, BALB/c nude mice", "conditions": "TMP 100 then 300 mg/kg orally twice a day, 17 days"}, "HCT116 cells [5]": {"system": "HCT116 cells", "assay": "IL15 shedding into media, ELISA and MSD", "format": "cell-based, human", "conditions": "TMP doses", "experimental": "To test if IL15 is shed into the media, supernatant from HCT116 cells expressing IL15-IL15Ra fusion constructs was subject to immunoassays such as ELISA and MSD (Rockville, Maryland). In FIG. 54B, OD indicates optical density. IL15 was measured in the media of cells expressing IL15-IL15Ra fusion constructs."}}, "note": "Several values for one entry are separate records, joined by “and”; a condition that tells them apart may be missing. Equal entries are not always repeated. Entries after “also recorded” stand apart in the source; their conditions may differ."}
{"substance": "OT-IL15-009: IL15-IL15Ra fusion with ecDHFR (R12Y, Y100I) DD", "values": [{"measurement": "IL15 stabilization by western blot (FIG. 24A)", "setting": "HEK-293T cells", "value": "strong ligand (Trimethoprim) dependent stabilization of IL15"}, {"measurement": "Percentage of IL15Ra positive cells", "setting": "CD4 positive T cells; 100 μM TMP", "value": "16.6% and 16%"}, {"measurement": "Proportion of CD4 T cells with surface IL15Ra over time (FIG. 48)", "setting": "CD4 positive T cells; 100 μM TMP, 1-24 h", "value": "from 4 hrs after TMP treatment, the cells transduced with the OT-IL15-009 construct and treated with TMP exhibited an increased proportion of cells with surface expression of IL15Ra"}, {"measurement": "percentage of IL15Ra positive CD4 positive T cells, TMP", "setting": "CD4 positive T cells; 100 μM TMP, 1 hours", "value": 1.86}, {"measurement": "percentage of IL15Ra positive CD4 positive T cells, TMP", "setting": "CD4 positive T cells; 100 μM TMP, 2 hours", "value": 2.27}, {"measurement": "percentage of IL15Ra positive CD4 positive T cells, TMP", "setting": "CD4 positive T cells; 100 μM TMP, 4 hours", "value": 4.01}, {"measurement": "percentage of IL15Ra positive CD4 positive T cells, TMP", "setting": "CD4 positive T cells; 100 μM TMP, 6 hours", "value": 5.85}, {"measurement": "percentage of IL15Ra positive CD4 positive T cells, TMP", "setting": "CD4 positive T cells; 100 μM TMP, 8 hours", "value": 7.09}, {"measurement": "percentage of IL15Ra positive CD4 positive T cells, TMP", "setting": "CD4 positive T cells; 100 μM TMP, 15 hours", "value": 12.53}, {"measurement": "percentage of IL15Ra positive CD4 positive T cells, TMP", "setting": "CD4 positive T cells; 100 μM TMP, 22 hours", "value": 14.57}, {"measurement": "percentage of IL15Ra positive CD4 positive T cells, TMP", "setting": "CD4 positive T cells; 100 μM TMP, 24 hours", "value": 13.75}, {"measurement": "percentage of IL15Ra positive CD4 positive T cells, DMSO", "setting": "CD4 positive T cells; 1 hours", "value": 2.03}, {"measurement": "percentage of IL15Ra positive CD4 positive T cells, DMSO", "setting": "CD4 positive T cells; 2 hours", "value": 2.12}, {"measurement": "percentage of IL15Ra positive CD4 positive T cells, DMSO", "setting": "CD4 positive T cells; 4 hours", "value": 1.99}, {"measurement": "percentage of IL15Ra positive CD4 positive T cells, DMSO", "setting": "CD4 positive T cells; 6 hours", "value": 1.87}, {"measurement": "percentage of IL15Ra positive CD4 positive T cells, DMSO", "setting": "CD4 positive T cells; 8 hours", "value": 2.14}, {"measurement": "percentage of IL15Ra positive CD4 positive T cells, DMSO", "setting": "CD4 positive T cells; 15 hours", "value": 2.46}, {"measurement": "percentage of IL15Ra positive CD4 positive T cells, DMSO", "setting": "CD4 positive T cells; 22 hours", "value": 2.78}, {"measurement": "percentage of IL15Ra positive CD4 positive T cells, DMSO", "setting": "CD4 positive T cells; 24 hours", "value": 2.07}, {"measurement": "Stabilization ratio", "setting": "CD4 positive T cells; 1 hours", "value": 0.92}, {"measurement": "Stabilization ratio", "setting": "CD4 positive T cells; 4 hours", "value": 2.02}, {"measurement": "Stabilization ratio", "setting": "CD4 positive T cells; 6 hours", "value": 3.13}, {"measurement": "Stabilization ratio", "setting": "CD4 positive T cells; 8 hours", "value": 3.31}, {"measurement": "Stabilization ratio", "setting": "CD4 positive T cells; 15 hours", "value": 5.09}, {"measurement": "Stabilization ratio", "setting": "CD4 positive T cells; 22 hours", "value": 5.24}, {"measurement": "Stabilization ratio", "setting": "CD4 positive T cells; 24 hours", "value": 6.64}, {"measurement": "Percentage of IL15Ra positive cells", "setting": "CD4 positive T cells; untreated T cells", "value": "1.68% and 1%"}, {"measurement": "Tumor growth (FIG. 55)", "setting": "HCT116 cells [1]", "value": "mice treated with TMP had smaller tumors than mice of the other two groups"}, {"measurement": "Surface expression of IL15 and IL15Ra (FIG. 24B, 24C)", "setting": "HEK293T cells", "value": "strong ligand (Trimethoprim) dependent surface expression of IL15 and IL15Ra"}, {"measurement": "Median Fluorescence Intensity, surface IL15-IL15Ra", "setting": "HCT-116 cells [2]; DMSO", "value": 1260}, {"measurement": "Median Fluorescence Intensity, surface IL15-IL15Ra", "setting": "HCT-116 cells [2]; TMP 0.01 μM", "value": 1384}, {"measurement": "Median Fluorescence Intensity, surface IL15-IL15Ra", "setting": "HCT-116 cells [2]; TMP 0.02 μM", "value": 1492}, {"measurement": "Median Fluorescence Intensity, surface IL15-IL15Ra", "setting": "HCT-116 cells [2]; TMP 0.05 μM", "value": 1947}, {"measurement": "Median Fluorescence Intensity, surface IL15-IL15Ra", "setting": "HCT-116 cells [2]; TMP 0.14 μM", "value": 2741}, {"measurement": "Median Fluorescence Intensity, surface IL15-IL15Ra", "setting": "HCT-116 cells [2]; TMP 0.41 μM", "value": 3360}, {"measurement": "Median Fluorescence Intensity, surface IL15-IL15Ra", "setting": "HCT-116 cells [2]; TMP 3.7 μM", "value": 4265}, {"measurement": "Median Fluorescence Intensity, surface IL15-IL15Ra", "setting": "HCT-116 cells [2]; TMP 11.11 μM", "value": 4267}, {"measurement": "Median Fluorescence Intensity, surface IL15-IL15Ra", "setting": "HCT-116 cells [2]; TMP 33.33 μM", "value": 4485}, {"measurement": "Median Fluorescence Intensity, surface IL15-IL15Ra", "setting": "HCT-116 cells [2]; TMP 100 μM", "value": 4633}, {"measurement": "Median Fluorescence Intensity, surface IL15-IL15Ra", "setting": "HCT-116 cells [2]; TMP […]", "value": 4014}, {"measurement": "MFI, surface IL15-IL15Ra", "setting": "HCT-116 cells [3]; 0 h", "value": 4004}, {"measurement": "MFI, surface IL15-IL15Ra", "setting": "HCT-116 cells [3]; 12 h", "value": 7054}, {"measurement": "MFI, surface IL15-IL15Ra", "setting": "HCT-116 cells [3]; 16 h", "value": 9390}, {"measurement": "MFI, surface IL15-IL15Ra", "setting": "HCT-116 cells [3]; 24 h", "value": 14056}, {"measurement": "MFI, surface IL15-IL15Ra", "setting": "HCT-116 cells [3]; 48 h", "value": 28644}, {"measurement": "MFI, surface IL15-IL15Ra", "setting": "HCT-116 cells [3]; 72 h", "value": 35303}, {"measurement": "IL15Ra expression in T cells (FIG. 35)", "setting": "primary T cells; 10 μM TMP 24/48 h or 0.156-160 μM 24 h", "value": "increase in the expression of IL15Ra in T cells with both doses of lentivirus used; also recorded: An increase in the percentage of IL15Ra cells with increasing doses of TMP was observed"}, {"measurement": "% Positive cells, IL15Ra positive", "setting": "primary T cells; T cells, surface expression", "value": 15.8, "unit": "%"}, {"measurement": "% Positive cells, IL15 and IL15Ra positive", "setting": "primary T cells; T cells, surface expression", "value": 0.51, "unit": "%"}, {"measurement": "% Positive cells, IL15 positive", "setting": "primary T cells; T cells, surface expression", "value": 0.60, "unit": "%"}, {"measurement": "IL15Ra expression by immunoblot (FIG. 26, 27, 54A)", "setting": "HCT116 cells [4]", "value": "virtually undetectable in the absence of TMP, and addition of increasing doses of TMP resulted in an increase in IL15Ra levels"}, {"measurement": "IL15-IL15Ra in tumors by western blot (FIG. 49)", "setting": "HCT116 tumors", "value": "elevated levels of IL15-IL15Ra expression, compared to tumors treated with the vehicle"}, {"measurement": "IL15 levels in the media (FIG. 54B, 54C)", "setting": "HCT116 cells [5]", "value": "TMP dose dependent increase in IL15 levels detected in the media"}]}
